37 molecules from patent publication US20030171218A1, “Substituted 3-heteroaryl(amino- or oxy)pyrrolidin-2-ones, their preparation and use as herbicides or plant growth regulators” (priority 2001, published 2003) can be followed below.

For assay [1], the system named is weed plants such as Digitaria sanguinalis, Echinochloa crus-galli, Setaria faberi, Setaria viridis, Sorghum halepense, Abutilon theophrasti, Amaranthum …. The assay can be described thus: Pre-emergence effect on weeds (greenhouse pot test). The format is in vivo, monocotyledonous and dicotyledonous weed plants. As to conditions: application rate of 1 kg or less of active substance per hectare; scored visually after 3 to 4 weeks by comparison with untreated controls. The source says:
Seeds or rhizome pieces of monocotyledonous and dicotyledonous weed plants are placed in sandy loam soil in plastic pots and covered with soil. The compounds according to the invention which are formulated in the form of wettable powders or emulsion concentrates are then applied to the surface of the soil cover in the form of aqueous suspensions or emulsions at an application rate of 600 to 800 l of water/ha (converted), in various dosages.
After the treatment, the pots are placed in a greenhouse and kept under good growth conditions for the weeds. After the test plants have emerged, the damage to the plants or the negative effect on the emergence is scored visually after a test period of 3 to 4 weeks by comparison with untreated controls. As shown by the test results, compounds according to the invention have good herbicidal pre-emergence activity against a broad spectrum of weed grasses and broad-leafed weeds.

In assay [2] the test system is harmful plants such as Digitaria sanguinalis, Echinochloa crus-galli, Setaria faberi, Setaria viridis, Sorghum halepense, Abutilon theophrasti, Amaranthum …. The assay can be described thus: Post-emergence effect on weeds (greenhouse pot test). The format is in vivo, monocotyledonous and dicotyledonous weeds. As to conditions: application rate of 1 kg and less of active substance per hectare; treated at three-leaf stage; scored visually after about 3 to 4 weeks by comparison with untreated controls. The protocol:
Seeds or rhizome pieces of monocotyledonous and dicotyledonous weeds are placed in sandy loam soil in plastic pots, covered with soil and grown in a greenhouse under good growth conditions. Three weeks after sowing, the test plants are treated at the three-leaf stage. The compounds according to the invention which were formulated as wettable powders or emulsion concentrates are sprayed, at various dosages, onto the green parts of the plants at an application rate of 600 to 800 l of water/ha (converted). After the test plants have remained in the greenhouse for about 3 to 4 weeks under optimum growth conditions, the effect of the preparations is scored visually by comparison with untreated controls. The agents according to the invention also have good herbicidal activity post-emergence against a broad spectrum of economically important weed grasses and broad-leafed weeds.

As for `CC(C)c1nc(N)nc(N(C)C2CCN(c3cccc(OC(F)(F)F)c3)C2=O)n1` (centres unmarked) [Example A75], in assay [1], the herbicidal activity pre-emergence result is reported as “very good herbicidal activity”. In addition, the herbicidal activity post-emergence entry in assay [2] is “very good herbicidal activity”.

For the molecule `Cc1nc(N)nc(NC2CCN(c3cccc(C(F)(F)F)c3)C2=O)n1` (centres unmarked) [Example A3], the herbicidal activity pre-emergence result in assay [1] is on record as “very good herbicidal activity”. Further, in assay [2], the herbicidal activity post-emergence result is reported as “very good herbicidal activity”.

In the case of `Cc1cccc(N2CCC(N(C)c3nc(N)nc(C(C)C)n3)C2=O)c1` (centres unmarked) [Example A74], the herbicidal activity pre-emergence entry in assay [1] is given as “very good herbicidal activity”. The herbicidal activity post-emergence result in assay [2] is “very good herbicidal activity”.

For the molecule `Cc1cccc(N2CCC(Oc3nc(N)nc(C(C)C)n3)C2=O)c1` (centres unmarked) [Example A47], the herbicidal activity pre-emergence result in assay [1] is listed as “very good herbicidal activity”. Also, the herbicidal activity post-emergence entry in assay [2] is given as “very good herbicidal activity”.

With `COc1cccc(N2CCC(Nc3nc(N)nc(C(C)F)n3)C2=O)c1` (centres unmarked) [Example A16], the herbicidal activity pre-emergence entry in assay [1] was “very good herbicidal activity”. In assay [2], the herbicidal activity post-emergence result is “very good herbicidal activity”.

Consider `COc1cccc(N2CCC(Nc3nc(N)nc(C(C)(C)F)n3)C2=O)c1` (centres unmarked) [Example A30], for which, in assay [1], the herbicidal activity pre-emergence result is given as “very good herbicidal activity”. For the same molecule, in assay [2], the herbicidal activity post-emergence entry is on record as “very good herbicidal activity”.

For the molecule `CC(C)(F)c1nc(N)nc(NC2CCN(c3cccc(C(F)(F)F)c3)C2)n1` (centres unmarked) [Example E19], the herbicidal activity pre-emergence entry in assay [1] is on record as “very good herbicidal activity”. Besides, the herbicidal activity post-emergence entry in assay [2] is “very good herbicidal activity”.

For the molecule `CC(C)c1nc(N)nc(OC2CCN(c3cccc(F)c3)C2=O)n1` (centres unmarked) [Example A53], the herbicidal activity pre-emergence entry in assay [1] was “very good herbicidal activity”. Also, the herbicidal activity post-emergence entry in assay [2] is on record as “very good herbicidal activity”.

As to `Cc1cccc(N2CCC(Nc3nc(N)nc(C(C)(C)F)n3)C2=O)c1` (centres unmarked) [Example A33], the herbicidal activity pre-emergence result in assay [1] is listed as “very good herbicidal activity”. For the same molecule, the herbicidal activity post-emergence result in assay [2] is recorded as “very good herbicidal activity”.

On to `CN(c1nc(N)nc(C(C)(C)F)n1)C1CCN(c2cccc(OC(F)(F)F)c2)C1` (centres unmarked) [Example E49], for which the herbicidal activity pre-emergence entry in assay [1] is listed as “very good herbicidal activity”. For the same molecule, the herbicidal activity post-emergence result in assay [2] is reported as “very good herbicidal activity”.

With `Cc1nc(N)nc(NC2CCN(c3ccccc3)C2=O)n1` (centres unmarked) [Example A2], the herbicidal activity pre-emergence result in assay [1] is given as “very good herbicidal activity”. Besides, the herbicidal activity post-emergence result in assay [2] is “very good herbicidal activity”.

As to `CC(C)(F)c1nc(N)nc(NC2CCN(c3cccc(C(F)(F)F)c3)C2=O)n1` (centres unmarked) [Example A32], in assay [1], the herbicidal activity pre-emergence result was “very good herbicidal activity”. Moreover, in assay [2], the herbicidal activity post-emergence result was “very good herbicidal activity”.

`CC(F)c1nc(N)nc(N(C)C2CCN(c3cccc(Cl)c3)C2=O)n1` (centres unmarked) [Example A66]: the herbicidal activity pre-emergence result in assay [1] is listed as “very good herbicidal activity”. In addition, the herbicidal activity post-emergence result in assay [2] was “very good herbicidal activity”.

Consider `CC(F)c1nc(N)nc(NC2CCN(c3cccc(C(F)(F)F)c3)C2=O)n1` (centres unmarked) [Example A12], for which the herbicidal activity pre-emergence entry in assay [1] is “very good herbicidal activity”. Also, the herbicidal activity post-emergence result in assay [2] was “very good herbicidal activity”.

`Cc1nc(N)nc(NC2CCN(c3ccc(F)c(C)c3)C2=O)n1` (centres unmarked) [Example A6]: the herbicidal activity pre-emergence result in assay [1] is on record as “very good herbicidal activity”. For the same molecule, the herbicidal activity post-emergence entry in assay [2] was “very good herbicidal activity”.

Take `CC(C)c1nc(N)nc(OC2CCN(C(C)(C)c3cccc(Cl)c3)C2=O)n1` (centres unmarked) [Example F2]: the herbicidal activity pre-emergence entry in assay [1] is reported as “very good herbicidal activity”. In addition, in assay [2], the herbicidal activity post-emergence entry is “very good herbicidal activity”.

For the molecule `CC(C)c1nc(N)nc(NC2CCN(c3cccc(C(F)(F)F)c3)C2=O)n1` (centres unmarked) [Example A21], in assay [1], the herbicidal activity pre-emergence result is reported as “very good herbicidal activity”. Further, the herbicidal activity post-emergence entry in assay [2] is recorded as “very good herbicidal activity”.

`CC(F)c1nc(N)nc(NC2CCN(c3cccc(Cl)c3)C2=O)n1` (centres unmarked) [Example A18]: the herbicidal activity pre-emergence entry in assay [1] is listed as “very good herbicidal activity”. For the same molecule, in assay [2], the herbicidal activity post-emergence entry was “very good herbicidal activity”.

As for `COc1cccc(N2CCC(Oc3nc(N)nc(C(C)C)n3)C2=O)c1` (centres unmarked) [Example A50], the herbicidal activity pre-emergence result in assay [1] is “very good herbicidal activity”. Besides, in assay [2], the herbicidal activity post-emergence entry is reported as “very good herbicidal activity”.

On to `CC(C)c1nc(N)nc(OC2CCN(c3cccc(C(F)(F)F)c3)C2=O)n1` (centres unmarked) [Example A46], for which the herbicidal activity pre-emergence entry in assay [1] is “very good herbicidal activity”. Further, in assay [2], the herbicidal activity post-emergence result was “very good herbicidal activity”.

On to `CC(C)(F)c1nc(N)nc(NC2CCN(c3cccc(Cl)c3)C2=O)n1` (centres unmarked) [Example A36], for which, in assay [1], the herbicidal activity pre-emergence result was “very good herbicidal activity”. Besides, in assay [2], the herbicidal activity post-emergence entry was “very good herbicidal activity”.

For `CC(C)(F)c1nc(N)nc(NC2CCN(c3cccc(F)c3)C2=O)n1` (centres unmarked) [Example A28], the herbicidal activity pre-emergence entry in assay [1] is “very good herbicidal activity”. Further, the herbicidal activity post-emergence result in assay [2] was “very good herbicidal activity”.

As for `CN(c1nc(N)nc(C(C)(C)F)n1)C1CCN(c2cccc(F)c2)C1=O` (centres unmarked) [Example A82], the herbicidal activity pre-emergence entry in assay [1] is “very good herbicidal activity”. The herbicidal activity post-emergence entry in assay [2] is listed as “very good herbicidal activity”.

`CC(C)c1nc(N)nc(N(C)C2CCN(c3cccc(OC(F)(F)F)c3)C2)n1` (centres unmarked) [Example E67]: the herbicidal activity pre-emergence entry in assay [1] is given as “very good herbicidal activity”. The herbicidal activity post-emergence result in assay [2] is “very good herbicidal activity”.

As for `CC(F)c1nc(N)nc(NC2CCN(c3cccc(OC(F)(F)F)c3)C2)n1` (centres unmarked) [Example E23], in assay [1], the herbicidal activity pre-emergence entry is on record as “very good herbicidal activity”. The herbicidal activity post-emergence entry in assay [2] is “very good herbicidal activity”.

For the molecule `CC(C)c1nc(N)nc(N(C)C2CCN(c3cccc(C(F)(F)F)c3)C2=O)n1` (centres unmarked) [Example A70], the herbicidal activity pre-emergence entry in assay [1] is recorded as “very good herbicidal activity”. Also, the herbicidal activity post-emergence entry in assay [2] is “very good herbicidal activity”.

Regarding `CC(C)c1nc(N)nc(NC2CCN(c3cccc(Cl)c3)C2=O)n1` (centres unmarked) [Example A27], the herbicidal activity pre-emergence entry in assay [1] was “very good herbicidal activity”. For the same molecule, the herbicidal activity post-emergence entry in assay [2] is on record as “very good herbicidal activity”.

On to `Cc1cc(N2CCC(Nc3nc(N)nc(C(C)C)n3)C2)ccc1F` (centres unmarked) [Example E12], for which the herbicidal activity pre-emergence result in assay [1] is on record as “very good herbicidal activity”. In addition, the herbicidal activity post-emergence result in assay [2] is recorded as “very good herbicidal activity”.

In the case of `Cc1cc(C)cc(N2CCC(N(C)c3nc(N)nc(C(C)F)n3)C2)c1` (centres unmarked) [Example E59], in assay [1], the herbicidal activity pre-emergence entry is “very good herbicidal activity”. In assay [2], the herbicidal activity post-emergence entry is on record as “very good herbicidal activity”.

For the molecule `CC(F)c1nc(N)nc(NC2CCN(c3cccc(C(F)(F)F)c3)C2)n1` (centres unmarked) [Example E20], the herbicidal activity pre-emergence result in assay [1] is “very good herbicidal activity”. Besides, the herbicidal activity post-emergence result in assay [2] is on record as “very good herbicidal activity”.

With `Cc1cccc(N2CCC(Nc3nc(C)nc(N)n3)C2=O)c1` (centres unmarked) [Example A4], in assay [1], the herbicidal activity pre-emergence entry was “very good herbicidal activity”. Further, in assay [2], the herbicidal activity post-emergence result is recorded as “very good herbicidal activity”.

Regarding `Cc1cccc(N2CCC(Oc3nc(N)nc(C(C)F)n3)C2=O)c1` (centres unmarked) [Example A38], in assay [1], the herbicidal activity pre-emergence entry was “very good herbicidal activity”. Also, the herbicidal activity post-emergence result in assay [2] was “very good herbicidal activity”.

As for `Cc1cccc(N2CCC(Nc3nc(N)nc(C(C)(C)F)n3)C2)c1` (centres unmarked) [Example E7], in assay [1], the herbicidal activity pre-emergence entry is on record as “very good herbicidal activity”. Besides, the herbicidal activity post-emergence entry in assay [2] is reported as “very good herbicidal activity”.

As to `CC(C)c1nc(N)nc(NC2CCN(c3cccc(OC(F)(F)F)c3)C2)n1` (centres unmarked) [Example E24], the herbicidal activity pre-emergence entry in assay [1] is “very good herbicidal activity”. Further, in assay [2], the herbicidal activity post-emergence result is given as “very good herbicidal activity”.

On to `CC(F)c1nc(N)nc(OC2CCN(c3cccc(C(F)(F)F)c3)C2=O)n1` (centres unmarked) [Example A37], for which the herbicidal activity pre-emergence result in assay [1] is “very good herbicidal activity”. Further, the herbicidal activity post-emergence result in assay [2] is reported as “very good herbicidal activity”.

As for `Cc1cc(C)cc(N2CCC(Nc3nc(N)nc(C(C)(C)F)n3)C2)c1` (centres unmarked) [Example E25], the herbicidal activity pre-emergence entry in assay [1] is on record as “very good herbicidal activity”. Moreover, in assay [2], the herbicidal activity post-emergence entry is recorded as “very good herbicidal activity”.

In the case of `Cc1cc(C)cc(N2CCC(Oc3nc(N)nc(C(C)C)n3)C2=O)c1` (centres unmarked) [Example A48], in assay [1], the herbicidal activity pre-emergence entry was “very good herbicidal activity”. Also, the herbicidal activity post-emergence entry in assay [2] is reported as “very good herbicidal activity”.
